How the values were obtained:
[1] = test system: phosphorylated c-Jun N-terminal kinase (p-JNK); assay: Immunoblot analysis of phosphorylated JNK in DCs; format: cell-based, human; conditions: FIG. 5 panels A and B
Method: (§1) Human peripheral blood mononuclear cells were collected from healthy donors and were isolated using Histopaque (Amersham Pharmacia Biotech, Piscataway, N.J., USA) for density gradient centrifugation. Erythrocytes were lysed by using 0.9% ammonium chloride incubated for 3 min at 37° C. Thereafter, CD14^+ monocytes were purified by gradient magnetic sorting method using miniMACS system with anti-CD14 microbeads (Miltenyi Biotec, Bergisch Bladbach, Germany). After incubation at 37° C. for 2 hr, nonadherent cells were removed and adherent cells were collected. The purity of isolated CD14^+ monocytes was over 90% by using flow cytometric analysis. Immature DCs were generated from CD14^+ monocytes by culture in RPMI 1640 medium supplemented with 10% fetal calf serum, 100 ng/mL GM-CSF (Schering-Plough, Munich, Germany), 50 ng/mL IL-4 (R&D Systems, Minneapolis, Minn., USA), and daphnoretin (0, 1.1, 3.3, 10 or 30 μM) every 3 days for 6 days in a humidified 5% CO2 incubator. To trigger maturation of DCs, immature DCs were incubated with lipopolysaccharide (LPS) (5 ng/mL) (Sigma, St. Louis, Mo., USA) and/or a combination of cytokines including 5 ng/mL TNF-α, 5 ng/mL IL-1β, 15 ng/mL IL-6 (R&D Systems, Minneapolis, Minn., USA), and 1 μg/mL prostaglandin E2 (PGE2) (Sigma-Aldrich, St. Louis, Mo., USA) for 24 hr. […]

[2] = test system: CD4+CD45RA+ naive T cells; assay: Allogenic naive T cell proliferation stimulated by matured DCs (BrdU); format: cell-based, human; conditions: mature DCs : CD4+CD45RA+ cells 1:10 or 1:30; FIG. 4
From the text: Nonadherent cells from culture of isolated mononuclear cells were used to purify naïve T cells. Naïve T cells were enriched with a CD4^+CD45RA^+T cell isolation kit (Miltenyi Biotec) using a MIniMACS system with negative selection technique. Monocyte-derived DCs were harvested and irradiated (3,000 cGy in a single fraction) with 6 MeV X-ray generated by linear accelerator (Clinac® 1800, Varian Associates Inc., CA) at a dose of 4.0 Gy/min. Full electron equilibrium was ensured for each fraction by a parallel plate PR-60C ionization chamber (Capintel Inc., Ramsey, N.J., USA). […] The cells were then collected and the incorporated BrdU was detected using flow cytometry to estimate T cell proliferation.

[3] = test system: human monocyte-derived dendritic cells (DCs); assay: Morphological observation of monocyte-derived DCs (differentiation); format: cell-based
Method: as §1

protein kinase C (PKC) = conditions: human hepatoma Hep3B cells; cited from earlier work
[4] = test system: Ehrlich ascites tumor, cervical cancer and lung adenocarcinoma; conditions: cited from earlier work
[5] = test system: human monocyte-derived dendritic cells (DCs); assay: Flow cytometric analysis of surface markers on monocyte-derived DCs; format: cell-based
Method: Human peripheral blood mononuclear cells were collected from healthy donors and were isolated using Histopaque (Amersham Pharmacia Biotech, Piscataway, N.J., USA) for density gradient centrifugation. Erythrocytes were lysed by using 0.9% ammonium chloride incubated for 3 min at 37° C. Thereafter, CD14^+ monocytes were purified by gradient magnetic sorting method using miniMACS system with anti-CD14 microbeads (Miltenyi Biotec, Bergisch Bladbach, Germany). After incubation at 37° C. for 2 hr, nonadherent cells were removed and adherent cells were collected. The purity of isolated CD14^+ monocytes was over 90% by using flow cytometric analysis. Immature DCs were generated from CD14^+ monocytes by culture in RPMI 1640 medium supplemented with 10% fetal calf serum, 100 ng/mL GM-CSF (Schering-Plough, Munich, Germany), 50 ng/mL IL-4 (R&D Systems, Minneapolis, Minn., USA), and daphnoretin (0, 1.1, 3.3, 10 or 30 μM) every 3 days for 6 days in a humidified 5% CO2 incubator. To trigger maturation of DCs, immature DCs were incubated with lipopolysaccharide (LPS) (5 ng/mL) (Sigma, St. Louis, Mo., USA) and/or a combination of cytokines including 5 ng/mL TNF-α, 5 ng/mL IL-1β, 15 ng/mL IL-6 (R&D Systems, Minneapolis, Minn., USA), and 1 μg/mL prostaglandin E2 (PGE2) (Sigma-Aldrich, St. Louis, Mo., USA) for 24 hr. It has been shown that monocyte-conditioned medium containing a combination of pro-inflammatory cytokines (i.e., TNF-α, IL-1, IL-6, and PGE2) or LPS triggers efficient DCs maturation. Daphnoretin was purchased from Sigma (St. Louis, Mo., USA) and dissolved in PBS as a stock solution (0.5 mg/mL). Dual-color immunostain was performed using fluorescein isothiocyanate (FITC)- and phycoerythrin (PE)-conjugated monoclonal antibodies (mAbs). The mouse anti-human mAbs IgG1:FITC/mouse IgG1:PE, and appropriate isotype controls were purchased from Serotec (Oxford, UK) and used for characterization of DCs. The isotype controls used in our study included anti-CD11c and anti-CD14 (for IgG-FITC), anti-CD1a-PE, anti-CD80-PE, anti-CD83-PE, anti-HLA-DR-PE and anti-DC-SIGN-PE. Cells were incubated with saturating concentrations of PE-conjugated mAbs and primary CD11c mAbs followed by IgG-FITC at 4° C. for 30 min. After washing twice with PBS, 1×10^6 cells were applied to a FACS caliber flow cytometer (BD Biosciences, San Jose, Calif., USA). Data were collected and analyzed using CellQuest Software (BD Biosciences, San Jose, Calif., USA).

[6] = test system: acute rejection of skin allografts; assay: Skin allograft transplantation model
From the text: Male C57BL/6(H-2^b) and BALB/6(H-2^d) mice aged 6-8 weeks were purchased from Animal Resource Center of National Science Council of Taiwan (Taipei, Taiwan) and maintained in a room with 12 hr light/dark cycles. Standard laboratory chow and water were available ad libitum. […] Briefly, a 2×1 cm full-thickness skin graft was harvested from the donor mouse and sutured to the graft bed of a recipient mouse. The skin graft rejection was defined as necrosis of more than 80% of the epidermal surface. Daphnoretin (0.5 or 1.0 mg/Kg) and rapamycin (3.0 mg/Kg) were administered intraperitoneally daily until rejection was observed. Body weight was recorded and the white blood cell count was estimated by an automatic counter.

[7] = test system: hepatitis B surface antigen; conditions: human hepatoma Hep3B cells; cited from earlier work
[8] = test system: human monocyte-derived dendritic cells (DCs); assay: Number of viable DCs, trypan blue dye exclusion test; format: cell-based; conditions: daphnoretin 1.1, 3.3, 10 or 30 μM, FIG. 3
Method: as §1

Row | Compound | level of p-JNK in DCs treated with daphnoretin, effect of added JNK activator ([1]; co-incubated with daphnoretin) | proliferation of DCs stimulated T cells [2] | differentiation process of DCs (morphology, formation of dendrites) ([3]; daphnoretin 1.1, 3.3, 10 or 30 μM, FIG. 1) | morphology of DCs ([3]; treated with daphnoretin and anisomycin, FIG. 5 panel C) | protein kinase C (PKC) activity and intracellular level (protein kinase C (PKC)) | anti-cancer activity [4] | level of p-JNK in DCs ([1]; DCs treated with daphnoretin) | expression of CD1a ([5]; FIG. 2 panel A) | expression of macrophage marker CD14 ([5]; FIG. 2 panel B) | expression of CD40 ([5]; FIG. 2 panel C) | expression of CD83 ([5]; FIG. 2 panel D) | expression of DC-SIGN ([5]; FIG. 2 panel E) | fraction of the survived skin graft ([6]; daphnoretin 1.0 mg/Kg/day intraperitoneally, FIG. 6 panel A) | body weight of the recipient mouse ([6]; daphnoretin dose employed, vs control, FIG. 6 panel B) | white blood cell count of the recipient mouse ([6]; daphnoretin dose employed, vs control, FIG. 6 panel C) | expression of hepatitis B surface antigen [7] | cell viability (cell numbers of mature and immature DCs) [8]
1 | COc1ccc(C[C@H]2NC[C@H](O)[C@H]2OC(C)=O)cc1 [anisomycin, reference compound] | could reverse this decrease |  |  |  |  |  |  |  |  |  |  |  |  |  |  |  | 
2 | COc1cc2cc(Oc3ccc4ccc(=O)oc4c3)c(=O)oc2cc1O [daphnoretin, 7-hydroxy-6-methoxy-3,7′-dicoumaryl ether] |  | suppressed | suppressed | remained rounded and without the formation of any dendrites | inactivating protein kinase C (PKC) | possess anti-cancer activity | decrease | suppressed | unaffected | suppressed | suppressed | suppressed | even higher than that treated of the rapamycin-treated mouse | did not vary significantly | did not vary significantly | suppressing the expression of hepatitis B surface antigen | reduced the cell numbers of both mature and immature DCs in dose-dependent manner
